The source of these data is patent publication US20220056043A1, “NITROGEN-CONTAINING FUSED CYCLIC COMPOUND, PREPARATION METHOD THEREFOR AND USE THEREOF” (SICHUAN KELUN-BIOTECH BIOPHARMACEUTICAL CO., LTD., priority 2019, published 2022).

The target in one assay is T1, hTLR8 (Homo sapiens, UniProt Q9NR97).
T1 construct: host or cells: HEK-Blue hTLR8 cells
T1 sequence (Q9NR97 27-1041): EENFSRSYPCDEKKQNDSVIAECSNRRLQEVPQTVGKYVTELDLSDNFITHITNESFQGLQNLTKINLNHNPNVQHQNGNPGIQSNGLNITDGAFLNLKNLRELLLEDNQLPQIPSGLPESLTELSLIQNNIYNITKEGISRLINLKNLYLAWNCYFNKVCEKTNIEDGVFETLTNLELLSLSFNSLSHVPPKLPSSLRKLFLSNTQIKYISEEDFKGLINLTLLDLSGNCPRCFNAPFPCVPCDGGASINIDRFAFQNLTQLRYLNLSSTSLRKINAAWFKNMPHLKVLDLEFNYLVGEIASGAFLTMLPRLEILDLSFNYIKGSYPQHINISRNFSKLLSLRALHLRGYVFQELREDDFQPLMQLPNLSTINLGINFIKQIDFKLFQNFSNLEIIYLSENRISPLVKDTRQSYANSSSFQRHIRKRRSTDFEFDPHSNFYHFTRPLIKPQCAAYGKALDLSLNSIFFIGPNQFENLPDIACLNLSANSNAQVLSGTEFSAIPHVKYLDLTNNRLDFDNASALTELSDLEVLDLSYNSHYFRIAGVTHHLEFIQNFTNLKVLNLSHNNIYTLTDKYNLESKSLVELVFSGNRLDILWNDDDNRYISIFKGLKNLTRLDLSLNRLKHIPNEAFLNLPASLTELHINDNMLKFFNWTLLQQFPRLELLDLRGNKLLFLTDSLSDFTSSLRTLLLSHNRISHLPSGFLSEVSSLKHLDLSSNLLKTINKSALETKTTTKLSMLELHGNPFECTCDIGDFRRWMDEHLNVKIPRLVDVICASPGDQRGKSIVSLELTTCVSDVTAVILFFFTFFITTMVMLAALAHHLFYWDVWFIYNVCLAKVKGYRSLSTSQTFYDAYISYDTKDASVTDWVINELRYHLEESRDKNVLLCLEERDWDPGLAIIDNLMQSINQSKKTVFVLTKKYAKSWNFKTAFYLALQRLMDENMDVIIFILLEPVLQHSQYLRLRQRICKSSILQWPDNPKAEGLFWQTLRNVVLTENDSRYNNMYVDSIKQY
Put plainly: Agonistic effect on hTLR8, HEK-Blue hTLR8 cells, alkaline phosphatase secretion. The settings on record: 16 hours. The assay is classed as cell-based. On the procedure:
Experimental Example 4: Agonistic Effect of the Compound of the Invention on hTLR8
In this test, the secretion of alkaline phosphatase in HEK-Blue cells was measured to test the activating effect of the compound of the invention on TLR8 signaling pathway, so as to evaluate the specificity of the agonistic effect of the compound on NLRP3 pathway.
Reagents: DMEM (High glucose); FBS (fetal bovine serum) (Gibco); QUANTI-Blue/InvivoGen/rep-qb2
Cells: HEK-Blue™ hTLR8 cells (human TLR 8 cells) (InvivoGen) Experimental Procedures:
1) The HEK-Blue™ hTLR8 cells in a logarithmic growth phase were trypsinized and resuspended in the medium to a concentration of 2×10^6 cells/mL. 50 μL/well of the cell suspension was added to a 96-well plate. An appropriate amount of 10 mM DMSO solution of the compound to be tested was taken and diluted to a concentration of 2× test concentration with the medium. 50 μL/well was added to the cells in the 96-well plate. The plate was incubated in an incubator at 37° C. and 5% CO2 for 16 hours. The medium was DMEM (High glucose) containing 10% FBS. 2) After the cell incubation, 10 μL of cell culture supernatant was transferred to a 96-well plate. 90 μL/well of QUANTI-Blue detection solution was added, and the mixture was incubated at 37° C. for 3 hours. OD620 was read using a microplate reader.
3) The EC50 of the effect of the tested compound to stimulate hTLR8 was fitted by the GraphPad software log(agonist) vs. response—Variable slope four-parameter method.

The subject of the next assay is THP1-defNLRP3 cells. Put plainly: Agonistic effect on the expression of IL-1β in NLRP3 deficient THP1 cells (THP1-defNLRP3) after PMA-induced differentiation (HTRF). It counts as cell-based, human. The settings on record: Homo sapiens, THP-1; IL-1β level, PMA-differentiated NLRP3 deficient THP1 cells, 6 hours; highest test concentration 30 μM; read-out: hNLRP3 EC50 (μM) (THP-1defNLRP3). An excerpt: Experimental Example 2: Agonistic Effect of the Compound of the Invention on the Expression of IL-1β in NLRP3 Deficient THP1 Cells (THP1-defNLRP3 Cells) after PMA-Induced Differentiation
In this test, a HTRF detection method was used to test the effect of the compound of the invention on the level of IL-1β in THP1-defNLRP3 cells to evaluate the specificity of the agonistic effect of the compound on hNLRP3 inflammasome or hNLRP3 inflammasome pathway.
Reagents: as described in Experimental Example 1
Cell: THP1-defNLRP3 (InvivoGen)
Kit: IL-1β assay kit (CISBIO)
1) THP1-defNLRP3 cells in a logarithmic growth phase were seeded in a T75 culture flask at a density of 5×10^5 cells/well, and cultured in a cell incubator at 37° C., 5% CO2 for 24 hours, and then 1 μM PMA was used to induce THP1-defNLRP3 suspension cells to become adherent macrophages. The medium was RPMI 1640 containing 10% heat-inactivated FBS and 0.05 mM β-mercaptoethanol.
2) The cells were induced and cultured for 24 hours. Then the adherent cells were trypsinized and centrifuged at 1000 rpm for 5 min. The supernatant was removed, and the cells were resuspended to a density of 2×10^6 cells/mL in RPMI 1640 medium containing 2% heat-inactivated FBS. 50 μL/well of the cell resuspension was taken and spread on a 96-well plate such that the number of cells in each well was 1×10^5.
3) An appropriate amount of 10 mM DMSO solution of the compound to be tested was taken and diluted to a concentration of 2× test concentration with RPMI 1640 medium containing 2% heat-inactivated FBS. 50 μL/well of the dilution was added to the cells in the 96-well plate, and mixed well. The plate was incubated in a cell incubator at 37° C., 5% CO2 for 6 hours. The supernatant was collected, and the level of IL-1β was measured in accordance with the instructions of the IL-1β detection kit.
4) EC50 was fitted by the GraphPad software log(agonist) vs. response—Variable slope four-parameter method.
For orientation: TR-FRET usually uses a lanthanide donor and a delayed reading to cut background.

Bounds are passed on as bounds.

`CN1CCC(Nc2cc(N)nc3cc(-c4ccn[nH]4)sc23)CC1` [Compound 89, N^7-(1-methylpiperidin-4-yl)-2-(1H-pyrazol-5-yl)thieno[3,2-b]pyridine-5,7-diamine]: the results for the EC50 at hTLR8 and in the assay with THP1-defNLRP3 cells were more than 100 µM and more than 30 µM, respectively.
`Nc1cc(NCCCO)c2sc(-c3ccncc3)cc2n1` [Compound 90, 3-((5-amino-2-(pyridin-4-yl)thieno[3,2-b]pyridin-7-yl)amino)-1-propanol]: the results for the EC50 at hTLR8 and in the assay on THP1-defNLRP3 cells were more than 100 µM and more than 30 µM, respectively.
Consider `Cc1cccc(-c2cc3nc(N)cc(NCCCO)c3s2)n1` [Compound 91, 3-((5-amino-2-(6-methylpyridin-2-yl)thieno[3,2-b]pyridin-7-yl)amino)-1-propanol], for which the EC50 on hTLR8 is more than 100 µM; in the assay with THP1-defNLRP3 cells it was more than 30 µM.
Turning to `CC(=O)N1CCC(Nc2cc(N)nc3cc(-c4ccn[nH]4)sc23)CC1` [Compound 92, 1-(4-((5-amino-2-(1H-pyrazol-5-yl)thieno[3,2-b]pyridin-7-yl)amino)piperidin-1-yl)ethanone], the EC50 on hTLR8 was more than 100 µM; in the assay with THP1-defNLRP3 cells, more than 30 µM.
Take `Nc1cc(NCCCO)c2sc(-c3ccccc3)cc2n1` [Compound 93, 3-((5-amino-2-phenylthieno[3,2-b]pyridin-7-yl)amino)-1-propanol]: the EC50 at hTLR8 was more than 100 µM; in the assay on THP1-defNLRP3 cells, more than 30 µM.
Consider `CC[C@H](CO)Nc1cc(N)nc2cc(-c3ccn[nH]3)sc12` [Compound 95, (R)-2-((5-amino-2-(1H-pyrazol-5-yl)thieno[3,2-b]pyridin-7-yl)amino)butanol], for which the EC50 is more than 100 µM at hTLR8 and more than 30 µM in the assay on THP1-defNLRP3 cells.
Consider `Nc1cc(N[C@@H]2CCC[C@@H]2O)c2sc(-c3ccn[nH]3)cc2n1` [Compound 96, (1S,2R)-2-((5-amino-2-(1H-pyrazol-5-yl)thieno[3,2-b]pyridin-7-yl)amino)cyclopentanol], for which the results for the EC50 at hTLR8 and with THP1-defNLRP3 cells were more than 100 µM and more than 30 µM, respectively.
As to `Nc1cc(NCC(F)(F)c2ccccn2)c2sc(-c3ccn[nH]3)cc2n1` [Compound 97, N^7-(2,2-difluoro-2-(pyridin-2-yl)ethyl)-2-(1H-pyrazol-5-yl)thieno[3,2-b]pyridine-5,7-diamine], the figures for the concentration giving a half-maximal response (EC50) at hTLR8 and with THP1-defNLRP3 cells were more than 100 µM and more than 30 µM, respectively.
The like results for `CC1(O)CCN(CCNc2cc(N)nc3cc(-c4ccn[nH]4)sc23)CC1` [Compound 98, 1-(2-((5-amino-2-(1H-pyrazol-5-yl)thieno[3,2-b]pyridin-7-yl)amino)ethyl)-4-methylpiperidine-4-ol] were, in that order, more than 100 µM and more than 30 µM.
In the case of `CC1(O)CCN(CCCNc2cc(N)nc3cc(-c4ccn[nH]4)sc23)CC1` [Compound 99, 1-(3-((5-amino-2-(1H-pyrazol-5-yl)thieno[3,2-b]pyridin-7-yl)amino)propyl)-4-methylpiperidine-4-ol], the results for the EC50 at hTLR8 and in the assay on THP1-defNLRP3 cells were more than 100 µM and more than 30 µM, respectively.
Regarding `CO[C@H](C)CNc1cc(N)nc2cc(-c3ccn[nH]3)sc12` [Compound 101, (R)—N^7-(2-methoxypropyl)-2-(1H-pyrazol-5-yl)thieno[3,2-b]pyridine-5,7-diamine], the figures for the EC50 on hTLR8 and with THP1-defNLRP3 cells were more than 100 µM and more than 30 µM, respectively.
For `Nc1cc(NCC2CC2)c2sc(-c3ccn[nH]3)cc2n1` [Compound 102, N^7-(cyclopropylmethyl)-2-(1H-pyrazol-5-yl)thieno[3,2-b]pyridine-5,7-diamine], in that order: more than 100 µM and more than 30 µM.
`CN1CCC[C@@H](Nc2cc(N)nc3cc(-c4ccn[nH]4)sc23)C1` [Compound 104, (R)—N^7-(1-methylpiperidin-3-yl)-2-(1H-pyrazol-5-yl)thieno[3,2-b]pyridine-5,7-diamine]: the EC50 on hTLR8 is more than 100 µM; in the assay with THP1-defNLRP3 cells, more than 30 µM.
Consider `Nc1cc(NC[C@@H]2CCCO2)c2sc(-c3ccn[nH]3)cc2n1` [Compound 105, (S)-2-(1H-pyrazol-5-yl)-N^7-((tetrahydrofuran-2-yl)methyl)thieno[3,2-b]pyridine-5,7-diamine], for which the concentration giving a half-maximal response (EC50) on hTLR8 is more than 100 µM; with THP1-defNLRP3 cells, more than 30 µM.
Regarding `Cn1cc(CNc2cc(N)nc3cc(-c4ccn[nH]4)sc23)cn1` [Compound 106, N^7-(1-methyl-1H-pyrazol-4-yl)methyl-2-(1H-pyrazol-5-yl)thieno[3,2-b]pyridine-5,7-diamine], the EC50 at hTLR8 was more than 100 µM; in the assay on THP1-defNLRP3 cells, more than 30 µM.
Turning to `C[C@@H](CO)Nc1cc(N)nc2cc(-c3ccn[nH]3)sc12` [Compound 108, (S)-2-((5-amino-2-(1H-pyrazol-5-yl)thieno[3,2-b]pyridin-7-yl)amino)propanol], the 50% effective concentration (EC50) on hTLR8 is more than 100 µM; with THP1-defNLRP3 cells, more than 30 µM.
With `Cn1cc(-c2cc3nc(N)cc(NCCCO)c3s2)cn1` [Compound 109, 3-((5-amino-2-(1-methyl-1H-pyrazol-4-yl)thieno[3,2-b]pyridin-7-yl)amino)-1-propanol], the EC50 at hTLR8 was more than 100 µM; with THP1-defNLRP3 cells, more than 30 µM.
For `Nc1cc(NC2CCCC2)c2sc(-c3ccn[nH]3)cc2n1` [Compound 110, N^7-cyclopentyl-2-(1H-pyrazol-5-yl)thieno[3,2-b]pyridine-5,7-diamine], in that order: more than 100 µM and more than 30 µM.
Take `COC(C)(C)CNc1cc(N)nc2cc(-c3ccn[nH]3)sc12` [Compound 111, N^7-(2′-methoxy-2′-methylpropyl)-2-(1H-pyrazol-5-yl)thieno[3,2-b]pyridine-5,7-diamine]: the EC50 on hTLR8 was more than 100 µM; with THP1-defNLRP3 cells, more than 30 µM.
`Nc1cc(NC2COC2)c2sc(-c3ccn[nH]3)cc2n1` [Compound 112, N^7-(oxetan-3-yl)-2-(1H-pyrazol-5-yl)thieno[3,2-b]pyridine-5,7-diamine]: the concentration for a half-maximal effect (EC50) is more than 100 µM at hTLR8 and more than 30 µM in the assay on THP1-defNLRP3 cells.
For `CCC(CC)Nc1cc(N)nc2cc(-c3ccn[nH]3)sc12` [Compound 113, N^7-(pent-3-yl)-2-(1H-pyrazol-5-yl)thieno[3,2-b]pyridine-5,7-diamine], in that order: more than 100 µM and more than 30 µM.

A word on the EC50: it is the concentration giving half of the maximal effect.
